The source of these data is patent US20080207624A1, “Therapeutic Agent for Bh4-Responsive Hyperphenylalaninemia” (priority 2004, published 2008).

Data set [1] can be described thus: Example 7: stability of sapropterin hydrochloride blended 200:1 with coloring agents. The format is physicochemical. The method, then: Sapropterin hydrochloride was mixed at a 200:1 ratio with different coloring agents. 0.2 g of each mixture was placed in a glass vial, which was then sealed with a metal cap and was stored at 40° C. and 75% RH for 4 weeks. Subsequently, the mixtures were evaluated for stability (i.e., change in appearance, amount of remaining active ingredient).

The nature of data set [2]: Example 2: stability of sapropterin hydrochloride mixed 1:5 with sweeteners, uncapped vial 40° C., 75% RH. Format: physicochemical. The note with it: 8 weeks. The method, then:
Sapropterin hydrochloride was mixed at a 1:5 ratio with each of the three sweeteners described above. 2 g of the mixture was placed in a glass vial and the vial was left uncapped at 40° C., 75% RH, to evaluate the stability of the preparation and sapropterin hydrochloride. […] The preparations using sucrose and fructose even underwent deliquescence. The remaining sapropterin hydrochloride was quantified by liquid chromatography that can differentiate sapropterin hydrochloride from its analogues. The area of the peak for sapropterin hydrochloride was determined and was used to calculate the remaining sapropterin hydrochloride (The same procedure was followed in other examples).

Counter-ions that a name gives are not always drawn.

Regarding `C[C@H](O)[C@H](O)[C@H]1CNc2nc(N)[nH]c(=O)c2N1` [None, sapropterin hydrochloride], the “% amount remained” value in data set [1] (After 4-week storage (40° C./75% RH), sealed vial) was determined as 99.6%. The Initial appearance result in data set [1] (before storage) is given as “White”. In data set [2], the “% amount of remaining sapropterin hydrochloride after storage” value worked out at 98.7% and the Appearance after storage entry is “Yellowish white”.
